Results taken from patent publication US10246442B2, “4-Aminoquinazolin compounds as prolyl hydroxylase inhibitors” (JANSSEN PHARMACEUTICA NV, priority 2011, dated 2019).

Columns and labels:
[1] = target: PHD2181-417 (Homo sapiens (Human), UniProt Q9GZT9); assay: PHD enzymatic assay ([14C]-succinic acid production); assay type: biochemical; conditions: purified PHD2181-417, HIF-1α peptide substrate, 30 min pre-incubation; average of results
Procedure, shortened: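 Recombinant human PHD2 (aa 181-417, E. coli-expressed, tags cleaved) with peptide substrate (10 μM) and [5-14C]-2-oxoglutarate in Tris pH 7.5 with catalase, DTT and ascorbate, 10 min reaction after 30 min compound pre-incubation; compounds at 100 μM final, 1% DMSO. [14C]-succinate separated by DNP precipitation and beta-counted; IC50 from three-parameter logistic fit.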

[2] = tested on: HIF1-α, Hela cells; assay: Cellular assay for HIF1-α in Hela cells; assay type: cell-based; conditions: Homo sapiens, 100 μM compound, 6 hours, percent of HIF stimulation relative to assay control compound 7-[(4-Chloro-phenyl)-(5-methyl-isoxazol-3-ylamino)-methyl]-quinolin-8-ol
Method: Cellular Assay for HIF1-α
Hela cells (ATCC, Manassas, Va.) were plated in 96-well plates at 20,000 cells per well in 100 μl of DMEM containing 10% fetal bovine serum, 1% non-essential amino acids, 50 IU/mL of penicillin and 50 μg/mL of streptomycin (all cell culture reagents from Invitrogen, Carlsbad, Calif.). 24 hours after plating, changed media to 100 ul of DMEM without 10% fetal bovine serum, 1.1 μl of the stock solution for each compound was added and incubated for 6 hours. All compounds were tested with a final compound concentration of 100 μM. The supernatant was removed and the cells were lysed in 55 μl of MSD lysis buffer containing protease inhibitors. 50 μl of the cell lysate was then transferred to a blocked MSD human HIF-1α detection plate (Meso-Scale Discovery, Gaithersburg, Md., as per manufacturers protocol), and incubated at room temperature on an orbital shaker for 2 hour. After 3 washes in PBS, 25 μl of 20 nM anti-HIF1α a detection antibody was added and incubated for 1 hour at room temperature on an orbital shaker. After 3 washes in PBS, 150 μl of 1× read buffer was added and the plate was then read on a MSD SECTOR instrument. Data was analyzed by determining the percent of HIF stimulation in the presence of 100 μM compound relative to an assay control compound, 7-[(4-Chloro-phenyl)-(5-methyl-isoxazol-3-ylamino)-methyl]-quinolin-8-ol.

[3] = tested on: Erythropoietin secretion, Hep-3B cells; assay: Cellular assay: EPO secretion in Hep-3B cells; assay type: cell-based; conditions: Homo sapiens, Hep3B, 100 μM compound, 24 hours, percent of EPO secretion relative to assay control compound 7-[(4-Chloro-phenyl)-(5-methyl-isoxazol-3-ylamino)-methyl]-quinolin-8-ol, read-out: Cellular % EPO Stimulation
Procedure, shortened: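 Compounds at 100 μM final were added to Hep-3B cells 24 h after plating and left for 24 h. Secreted EPO in supernatant measured by MSD electrochemiluminescence immunoassay. Reported as percent EPO secretion relative to an 8-hydroxyquinoline reference control compound.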

PHD2181-417, sequence (Q9GZT9 181-417): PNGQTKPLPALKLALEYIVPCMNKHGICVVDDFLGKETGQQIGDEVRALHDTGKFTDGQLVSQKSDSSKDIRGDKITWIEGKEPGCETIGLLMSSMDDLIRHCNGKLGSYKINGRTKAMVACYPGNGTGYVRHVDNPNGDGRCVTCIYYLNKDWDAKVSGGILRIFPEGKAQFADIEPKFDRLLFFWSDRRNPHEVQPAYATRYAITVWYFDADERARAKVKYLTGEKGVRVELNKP

| SMILES | Enzyme pIC50 [1] | activation at 100 µM [2] | activation at 100 µM [3] |
| --- | --- | --- | --- |
| CC(=O)NC1CCN(c2nc(-n3cc(C(=O)O)cn3)nc3ccc(-c4ccccc4)cc23)CC1 [Example 55, 1-(4-(4-Acetamidopiperidin-1-yl)-6-phenylquinazolin-2-yl)-1H-pyrazole-4-carboxylic acid] | 6.7 | 28% |  |
| O=C(O)c1cnn(-c2nc(N3CCCCCC3)c3cc(-c4ccccc4)ccc3n2)c1 [Example 48, 1-(4-(Azepan-1-yl)-6-phenylquinazolin-2-yl)-1H-pyrazole-4-carboxylic acid] | 7.2 | 23% |  |
| CCCCN(CCCC)c1nc(-n2cc(C(=O)O)cn2)nc2cc(Oc3ccccc3)ccc12 [Example 92, 1-(4-(Dibutylamino)-7-phenoxyquinazolin-2-yl)-1H-pyrazole-4-carboxylic acid] | 7.1 | 4.1% |  |
| CCN(C)c1nc(-n2cc(C(=O)O)cn2)nc2cc(Oc3ccccc3)ccc12 [Example 94, 1-(4-(Ethyl(methyl)amino)-7-phenoxyquinazolin-2-yl)-1H-pyrazole-4-carboxylic acid] | 7.2 | 83% |  |
| O=C(O)c1cnn(-c2nc(N3CCCC3)c3ccc(Oc4ccccc4)cc3n2)c1 [Example 78, 1-(7-Phenoxy-4-(pyrrolidin-1-yl)quinazolin-2-yl)-1H-pyrazole-4-carboxylic acid] | 7.3 | 64% | 38% |
| O=C(O)c1cnn(-c2nc(NCC3CCCCC3)c3cc(-c4ccccc4)ccc3n2)c1 [Example 49, 1-(4-((Cyclohexylmethyl)amino)-6-phenylquinazolin-2-yl)-1H-pyrazole-4-carboxylic acid] | 6.9 | 3.8% |  |
| CCN(CC)c1nc(-n2cc(C(=O)O)cn2)nc2ccc(N3CCCCC3)cc12 [Example 88, 1-(4-(Diethylamino)-6-(piperidin-1-yl)quinazolin-2-yl)-1H-pyrazole-4-carboxylic acid] | 7.0 | 122% | 94% |

Further lines, with some results ahead:

| Enzyme pIC50 [1] | SMILES | activation at 100 µM [2] | activation at 100 µM [3] |
| --- | --- | --- | --- |
| 6.4 | CN1CCCN(c2nc(-n3cc(C(=O)O)cn3)nc3ccc(-c4ccccc4)cc23)CC1 [Example 57, 1-(4-(4-Methyl-1,4-diazepan-1-yl)-6-phenylquinazolin-2-yl)-1H-pyrazole-4-carboxylic acid] | 30% |  |
| 6.3 | O=C(O)c1cnn(-c2nc(N3CCC(F)CC3)c3ccc(Oc4ccccc4)cc3n2)c1 [Example 91, 1-(4-(4-Fluoropiperidin-1-yl)-7-phenoxyquinazolin-2-yl)-1H-pyrazole-4-carboxylic acid] | 18% |  |
| 6.1 | O=C(O)c1cnn(-c2nc(N3CCCCC3)c3ccc(-c4ccccc4)cc3n2)c1 [Example 82, 1-(7-Phenyl-4-(piperidin-1-yl)quinazolin-2-yl)-1H-pyrazole-4-carboxylic acid] | 4.6% |  |
| 6.6 | CS(=O)(=O)Nc1nc(-n2cc(C(=O)O)cn2)nc2ccc(C3CCCCC3)cc12 [Example 40, 1-(6-Cyclohexyl-4-(methylsulfonamido)quinazolin-2-yl)-1H-pyrazole-4-carboxylic acid] | 6.7% |  |
| 6.4 | N#CC1CCN(c2nc(-n3cc(C(=O)O)cn3)nc3ccc(-c4ccccc4)cc23)CC1 [Example 59, 1-(4-(4-Cyanopiperidin-1-yl)-6-phenylquinazolin-2-yl)-1H-pyrazole-4-carboxylic acid] | 45% |  |
| 6.8 | COCCN(C)c1nc(-n2cc(C(=O)O)cn2)nc2cc(Oc3ccccc3)ccc12 [Example 95, 1-(4-((2-Methoxyethyl)(methyl)amino)-7-phenoxyquinazolin-2-yl)-1H-pyrazole-4-carboxylic acid] | 46% |  |
| 7.1 | O=C(O)c1cnn(-c2nc(Nc3ccccc3)c3cc(-c4ccccc4)ccc3n2)c1 [Example 44, 1-(6-Phenyl-4-(phenylamino)quinazolin-2-yl)-1H-pyrazole-4-carboxylic acid] | 22% |  |
